Among the data in paper PMC5461540, “MOB1 Mediated Phospho-recognition in the Core Mammalian Hippo Pathway” (Molecular & Cellular Proteomics : MCP, 2017) are Kd values, retold here.

Where a chain is given by its changes, count along the chain named. Where two headings read alike, the source gives them in different places. Where a SMILES comes first, the peptide text is derived from it.

What is called Kd is the constant that tells how readily two partners part at equilibrium.

The target of one test is T1, MOB3B (Homo sapiens, UniProt Q86TA1).
T1 construct: MOB3B (2–216, NP_079037); 6xHis (N, cleaved yes); GST (N, cleaved yes); made in house; host or cells: E. coli BL21 (DE3) CodonPlus RIL
T1 sequence (Q86TA1 2-216): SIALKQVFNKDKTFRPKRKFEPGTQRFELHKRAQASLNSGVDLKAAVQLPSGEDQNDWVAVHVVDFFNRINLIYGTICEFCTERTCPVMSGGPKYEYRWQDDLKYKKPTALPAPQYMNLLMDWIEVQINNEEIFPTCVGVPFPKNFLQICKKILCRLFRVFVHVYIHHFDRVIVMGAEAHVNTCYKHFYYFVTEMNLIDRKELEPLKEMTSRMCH
Briefly: Fluorescence polarization peptide binding assay, MOB3B. As to conditions: Fig. 5A, FP, 20 nM FITC labeled peptide, pH 7.5, mean ± S.E. (n = 3), read-out: Kd, μM (to MST1 pT367 peptide). An excerpt: (§1) Human MST1 kinase domain (amino acids 2–326, corresponding to NCBI RefSeq protein NP_006273), MST2 kinase domain (2–322, NP_006272), MOB1B (2–216, NP_001231695), MOB1A (2–216, NP_060691) wild-type and indicated MOB1A mutant proteins, MOB2 (2–237, NP_001165694), MOB3A (2–217, NP_570719), MOB3B (2–216, NP_079037), MOB3C (2–216, NP_660322), MOB4 (2–225, NP_056202), MOB4^RRR→AAA (2–225), and yeast Mob1 (79–314, NP_012160) were expressed in E. coli BL21 (DE3) CodonPlus RIL cells as N-terminal dual 6xhistidine (HIS) and glutathione S-transferase (GST), Tobacco Etch Virus (TEV) cleavable, fusion proteins using a modified pETM-30 vector. MOB wild-type and mutants were purified in batch on glutathione-Sepharose resin (GE Healthcare, Uppsala, Sweden) and eluted by cleavage from the affinity tags with HIS tagged TEV protease. […]
(§2) MST1 phosphopeptides encompassing pT353 and pT367 (15-mers) used for crystallization and FITC labeled nonphosphorylated and phosphorylated MST1 T353 peptides, T367 peptides, T329-T340 peptides, T380-T387 peptides and optimized Nud1-like peptides for fluorescence polarization binding experiments were purchased from Biomatik (Cambridge, ON). […]
(§3) Twelve-point fluorescence polarization binding measurements were performed in triplicate in 384-well plate format using an Analyst HT (Artisan-Scientific, Sunnyvale, CA) reader. […]
In general terms: In fluorescence polarisation assays a small probe gives low polarisation when free and higher when bound to something large.

The next test addresses T2, MOB3C (Homo sapiens, UniProt Q70IA8).
T2 construct: MOB3C (2–216, NP_660322); 6xHis (N, cleaved yes); GST (N, cleaved yes); made in house; host or cells: E. coli BL21 (DE3) CodonPlus RIL
T2 sequence (Q70IA8 2-216): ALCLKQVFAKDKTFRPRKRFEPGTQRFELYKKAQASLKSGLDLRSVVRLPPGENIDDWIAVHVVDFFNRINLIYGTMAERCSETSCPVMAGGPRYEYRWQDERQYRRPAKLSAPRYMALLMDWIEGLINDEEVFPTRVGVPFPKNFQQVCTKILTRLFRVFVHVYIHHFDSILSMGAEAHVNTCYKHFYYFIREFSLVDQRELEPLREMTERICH
Briefly: Fluorescence polarization peptide binding assay, MOB3C. The conditions noted are these: Fig. 5A, FP, 20 nM FITC labeled peptide, pH 7.5, mean ± S.E. (n = 3), read-out: Kd, μM (to MST1 pT367 peptide).
Excerpt: as §1, §2, §3

The target in another test is T3, MOB1A KRR→3A mutant (Homo sapiens, UniProt Q9H8S9, K153A/R154A/R157A).
T3 construct: MOB1A (2–216, NP_060691) wild-type and indicated MOB1A mutant proteins; 6xHis (N, cleaved yes); GST (N, cleaved yes); made in house; host or cells: E. coli BL21 (DE3) CodonPlus RIL
T3 sequence (Q9H8S9 2-216 K153A/R154A/R157A): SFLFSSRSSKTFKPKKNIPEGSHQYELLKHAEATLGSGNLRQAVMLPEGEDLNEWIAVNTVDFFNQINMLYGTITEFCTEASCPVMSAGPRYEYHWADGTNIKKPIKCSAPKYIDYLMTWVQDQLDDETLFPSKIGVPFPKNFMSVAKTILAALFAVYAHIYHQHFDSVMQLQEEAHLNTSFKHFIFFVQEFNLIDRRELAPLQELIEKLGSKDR
As to the kind of experiment: Fluorescence polarization peptide binding assay, MOB1A KRR→3A mutant (K153, R154, R157 to alanine). As to conditions: Fig. 2B, MOB1A KRR→3A (K153, R154, R157 to alanine); FP, 20 nM FITC labeled peptide, pH 7.5; n = 3; N.D. = Kd could not be determined.
Excerpt: as §1, §2, §3

The target in a further test is T4, MOB4 (Homo sapiens, UniProt Q9Y3A3).
T4 construct: MOB4 (2–225, NP_056202); 6xHis (N, cleaved yes); GST (N, cleaved yes); made in house; host or cells: E. coli BL21 (DE3) CodonPlus RIL
T4 sequence (Q9Y3A3 2-225): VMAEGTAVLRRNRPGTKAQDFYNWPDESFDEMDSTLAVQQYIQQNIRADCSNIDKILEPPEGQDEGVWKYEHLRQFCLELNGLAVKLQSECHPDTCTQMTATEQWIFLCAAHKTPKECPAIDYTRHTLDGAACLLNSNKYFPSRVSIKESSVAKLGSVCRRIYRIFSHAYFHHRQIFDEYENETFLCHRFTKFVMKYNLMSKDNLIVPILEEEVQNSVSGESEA
Briefly: Fluorescence polarization peptide binding assay, MOB4. The conditions noted are these: Fig. 5A, FP, 20 nM FITC labeled peptide, pH 7.5, mean ± S.E. (n = 3), read-out: Kd, μM (to MST1 pT367 peptide).
Excerpt: as §1, §2, §3

The target of the next test is T5, MOB3A (Homo sapiens, UniProt Q96BX8).
T5 construct: MOB3A (2–217, NP_570719); 6xHis (N, cleaved yes); GST (N, cleaved yes); made in house; host or cells: E. coli BL21 (DE3) CodonPlus RIL
T5 sequence (Q96BX8 2-217): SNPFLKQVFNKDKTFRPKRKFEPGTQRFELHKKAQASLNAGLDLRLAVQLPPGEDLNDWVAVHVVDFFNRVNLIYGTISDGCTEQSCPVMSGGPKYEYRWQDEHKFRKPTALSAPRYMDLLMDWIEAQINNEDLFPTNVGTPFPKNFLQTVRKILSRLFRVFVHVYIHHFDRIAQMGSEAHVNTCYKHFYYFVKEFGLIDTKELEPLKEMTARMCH
As to the kind of experiment: Fluorescence polarization peptide binding assay, MOB3A. The conditions noted are these: Fig. 5A, FP, 20 nM FITC labeled peptide, pH 7.5, mean ± S.E. (n = 3), read-out: Kd, μM (to MST1 pT367 peptide).
Excerpt: as §1, §2, §3

The next test deals with T6, MOB1A (Homo sapiens, UniProt Q9H8S9).
T6 construct: MOB1A (2–216, NP_060691); 6xHis (N, cleaved yes); GST (N, cleaved yes); made in house; host or cells: E. coli BL21 (DE3) CodonPlus RIL
T6 sequence (Q9H8S9 2-216): T3 sequence (Q9H8S9 2-216 K153A/R154A/R157A) with A152K, A153R, A156R
As to the kind of experiment: Fluorescence polarization peptide binding assay, MOB1A wild-type. As to conditions: FP, 20 nM FITC labeled peptide, pH 7.5. From the text:
Human MST1 kinase domain (amino acids 2–326, corresponding to NCBI RefSeq protein NP_006273), MST2 kinase domain (2–322, NP_006272), MOB1B (2–216, NP_001231695), MOB1A (2–216, NP_060691) wild-type and indicated MOB1A mutant proteins, MOB2 (2–237, NP_001165694), MOB3A (2–217, NP_570719), MOB3B (2–216, NP_079037), MOB3C (2–216, NP_660322), MOB4 (2–225, NP_056202), MOB4^RRR→AAA (2–225), and yeast Mob1 (79–314, NP_012160) were expressed in E. coli BL21 (DE3) CodonPlus RIL cells as N-terminal dual 6xhistidine (HIS) and glutathione S-transferase (GST), Tobacco Etch Virus (TEV) cleavable, fusion proteins using a modified pETM-30 vector. MOB wild-type and mutants were purified in batch on glutathione-Sepharose resin (GE Healthcare, Uppsala, Sweden) and eluted by cleavage from the affinity tags with HIS tagged TEV protease. TEV protease was removed from the eluted protein by subtractive immobilized-metal affinity chromatography. Cleaved protein was then concentrated and buffer exchanged by size exclusion chromatography (SEC) using a Superdex 75 120 ml column (GE Healthcare). For GST pull-downs and Far-Western analysis, the TEV cleavage step was omitted.
MST1 phosphopeptides encompassing pT353 and pT367 (15-mers) used for crystallization and FITC labeled nonphosphorylated and phosphorylated MST1 T353 peptides, T367 peptides, T329-T340 peptides, T380-T387 peptides and optimized Nud1-like peptides for fluorescence polarization binding experiments were purchased from Biomatik (Cambridge, ON). Peptide sequences used for crystallization studies are: T353, […](p)TMIEH and T367, […](p)TMVINA. All peptides used for biophysical studies are listed in supplemental Table S1.
Twelve-point fluorescence polarization binding measurements were performed in triplicate in 384-well plate format using an Analyst HT (Artisan-Scientific, Sunnyvale, CA) reader. Each 20 μl measurement condition contained 20 nM FITC labeled MST1 peptide or Nud1-like peptide and the indicated concentration of MOB proteins in 25 mM HEPES pH 7.5, 150 mM NaCl, 2 mM DTT, and 1 mg/ml bovine serum albumin (BSA). Kd values were obtained by fitting the results to a one site-specific binding model using GraphPad Prism.

In the case of `CC[C@H](C)[C@H](NC(=O)[C@@H](NC(=O)[C@H](CCSC)NC(=O)[C@@H](NC(=O)CNC(=O)[C@H](CC(C)C)NC(=O)[C@H](CCC(N)=O)NC(=O)[C@H](CO)NC(=O)[C@@H]1CCCN1C(=O)[C@H](CC(C)C)NC(=O)[C@@H](NC(=O)[C@H](CC(=O)O)NC(=O)[C@@H](N)CC(=O)O)[C@@H](C)O)[C@@H](C)OP(=O)(O)O)C(C)C)C(=O)N[C@@H](CC(N)=O)C(=O)N[C@@H](C)C(=O)O` [pT367] (HELM PEPTIDE1{D.D.T.L.P.S.Q.L.G.[C[C@@H](OP(=O)(O)O)[C@H](N[*:1])C(=O)[*:2]].M.V.I.N.A}$$$$V2.0), the Kd is 2 to 3 µM at MOB3B; 2 to 3 µM at MOB3C; “no measurable binding” at MOB1A KRR→3A mutant; 12.2 µM on MOB4; 2 to 3 µM at MOB3A; 0.68 µM on MOB1A (recombinant wild-type MOB1A, read-out: Kd). Further, the Kd on MOB1A (Fig. 5A, MOB1A, mean ± S.E. (n = 3), read-out: Kd, μM (to MST1 pT367 peptide)) stood at 0.67 ± 0.09 µM.
